In patent US9440969B2, “Compounds and methods for kinase modulation, and indications therefor” (PLEXXIKON INC., priority 2009, dated 2016):

Assays:
B-Raf = B-Raf (Homo sapiens, UniProt P15056); assay: B-Raf kinase activity assay (AlphaScreen, biotin-MEK1 substrate); conditions: 100 μM ATP, 100 nM biotin-MEK1, 45 minutes at room temperature; read-out: Biochemical activity (IC50 μM) B-Raf
Protocol: (§1) Assays for biochemical and cell based activity are known in the art, for example, as described in PCT publication WO 2007/002433, the disclosure of which is hereby incorporated by reference as it relates to such assays. For example, the biochemical activity IC50 values are determined with respect to inhibition of B-Raf kinase activity, c-Raf-1 kinase activity, or B-Raf V600E kinase activity, where inhibition of phosphorylation of a peptide substrate is measured as a function of compound concentration. Compounds to be tested are diluted in dimethyl sulfoxide to a concentration of 0.1 mM. These are serially diluted 15 μL into 30 μL of dimethyl sulfoxide seven times in 96 well plates for a total of 8 dilution points, and for each dilution point 1 μL is added to a well of an assay plate. Plates are prepared such that each well in a 384 well plate contains 1 μL of compound in 10 μL, volume with 0.1 ng Raf enzyme (i.e. any of B-Raf, c-Raf-1 or B-Raf V600E, Upstate Biotechnology or prepared by methods known to one of skill in the art), 50 mM HEPES, pH 7.0, 50 mM NaCl, 2 mM MgCl2, 1 mM MnCl2, 0.01% Tween-20, 1 mM DTT, and 100 nM biotin-MEK1 as substrate. The reaction is started with addition of 10 μL of 200 μM ATP (i.e. final 100 μM ATP). After incubation of the kinase reaction for 45 minutes at room temperature, 5 μL/well of Stop Solution is added (25 mM Hepes pH 7.5, 100 mM EDTA, 0.01% BSA with donor beads (Streptavidin coated beads, Perkin Elmer), acceptor beads (Protein A coated, Perkin Elmer), and anti phosphor MEK1/2 antibody (CellSignal), each at final concentration 10 μg/mL). The plates are incubated for 3 hours at room temperature and read on Envision reader (Perkin Elmer). Phosphorylation of Mek1 results in binding of the anti-phosphor-MEK1/2 antibody and association of the donor and acceptor beads such that signal correlates with kinase activity. The signal vs. compound concentration is used to determine the IC50.

c-Raf-1 = c-Raf-1 (Homo sapiens, UniProt P04049); assay: c-Raf-1 kinase activity assay (AlphaScreen, biotin-MEK1 substrate); conditions: 100 μM ATP, 100 nM biotin-MEK1, 45 minutes at room temperature; read-out: Biochemical activity (IC50 μM) c-Raf-1
Protocol: as §1

B-Raf V600E = B-Raf V600E (Homo sapiens, UniProt P15056, V600E); assay: B-Raf V600E kinase activity assay (AlphaScreen, biotin-MEK1 substrate); conditions: 100 μM ATP, 100 nM biotin-MEK1, 45 minutes at room temperature, read-out: Biochemical activity (IC50 μM) V600E
Protocol: as §1

[1] = Relative solubility by turbidity in aqueous buffers (pH 1.5, 4.5, 6.8, 7.4); assay type: physicochemical; conditions: for turbidity threshold (L, M, H) 1.4: pH 1.5 buffer (SGF); for turbidity threshold (L, M, H) 4.5: pH 4.5 buffer (SIF); for turbidity threshold (L, M, H) 6.8: pH 6.8 buffer (SIF); for turbidity threshold (L, M, H) 7.4: pH 7.4 buffer (HEPES)
Protocol: As an indication of relative solubility, the turbidity of compounds in aqueous solutions is assessed. To assess possible compound properties in different physiological compartments, such as stomach, intestine, and blood, a series of aqueous buffers with varying pH is used. Thus each compound is diluted into four different physiologically relevant buffers and solution turbidity is measured by spectrophotometry.
Compounds are dissolved at a concentration of 25 mM in dimethyl sulfoxide, then serially diluted 1:1 into a 96 well plate, diluting 10 times in pure dimethyl sulfoxide, with the final well of each row a dimethyl sulfoxide blank. In an assay plate, 99 μL of appropriate buffer is added to each well, and 1 μL of each sample dilution is added to the buffer, achieving a range of final total concentrations in aqueous solutions having different pH. The buffers used are Simulated Gastric Fluid (SGF-pH 1.5) 0.5M NaCl, pH 1.5; Simulated Intestinal fluid (SIF-pH 4.5 and pH 6.8) 0.05M NaH2PO4, pH 4.5 and 6.8; and Hepes Buffer (HEPES-pH 7.4) 10 mM HEPES, 150 mM NaCl, pH 7.4. Control compounds pyrene, estriol and propranolol HCl are also assessed. Plates are spun and then mixed for 1 minute, and the absorbance is read using a Tecan Safire II to read wavelengths in the visible range (490, 535, and 650 nm) at four locations per well, reflecting the degree of turbidity present. The average optical density for each wavelength in each well is graphed vs. compound concentration, and the concentration at which the curve crosses a threshold O.D. of 0.01 for each wavelength is reported as the endpoint turbidity assay result. The average of the three wavelengths is used to compare turbidity of compounds. Compounds are considered to have low solubility if the threshold concentration is <31.3 μM, moderate solubility if the threshold concentration is 31.3 μM to 250 μM, and high solubility if the threshold concentration is >250 μM.
The following table indicates the relative solubility (L=low, M=moderate, H=high) based on turbidity threshold concentration at each pH for exemplary compounds according to the invention: […]

Sequence of B-Raf (P15056 whole entry): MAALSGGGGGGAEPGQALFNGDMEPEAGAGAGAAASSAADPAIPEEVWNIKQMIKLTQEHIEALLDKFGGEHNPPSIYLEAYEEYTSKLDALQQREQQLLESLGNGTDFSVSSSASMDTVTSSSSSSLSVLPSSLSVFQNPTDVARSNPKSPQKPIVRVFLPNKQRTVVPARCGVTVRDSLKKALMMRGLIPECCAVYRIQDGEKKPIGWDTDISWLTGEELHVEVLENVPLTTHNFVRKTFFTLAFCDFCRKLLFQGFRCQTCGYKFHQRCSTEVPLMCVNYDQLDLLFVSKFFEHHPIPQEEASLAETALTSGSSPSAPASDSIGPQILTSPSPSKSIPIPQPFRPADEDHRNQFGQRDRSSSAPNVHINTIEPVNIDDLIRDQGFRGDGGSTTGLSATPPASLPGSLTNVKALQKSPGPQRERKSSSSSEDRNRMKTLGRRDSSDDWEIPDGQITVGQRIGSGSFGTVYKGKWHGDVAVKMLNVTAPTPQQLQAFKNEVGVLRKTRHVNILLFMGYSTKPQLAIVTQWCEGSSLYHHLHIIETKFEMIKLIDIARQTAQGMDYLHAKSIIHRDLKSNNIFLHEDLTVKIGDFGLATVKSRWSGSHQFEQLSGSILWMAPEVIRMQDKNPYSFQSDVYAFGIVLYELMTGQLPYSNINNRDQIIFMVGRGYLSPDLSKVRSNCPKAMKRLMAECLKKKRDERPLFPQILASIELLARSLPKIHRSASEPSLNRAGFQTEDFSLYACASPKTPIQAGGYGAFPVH
Sequence of B-Raf V600E (P15056 whole entry V600E): as the sequence (P15056 whole entry) above, with V600E counted along it
Sequence of c-Raf-1 (P04049 whole entry Y340D/Y341D, form open): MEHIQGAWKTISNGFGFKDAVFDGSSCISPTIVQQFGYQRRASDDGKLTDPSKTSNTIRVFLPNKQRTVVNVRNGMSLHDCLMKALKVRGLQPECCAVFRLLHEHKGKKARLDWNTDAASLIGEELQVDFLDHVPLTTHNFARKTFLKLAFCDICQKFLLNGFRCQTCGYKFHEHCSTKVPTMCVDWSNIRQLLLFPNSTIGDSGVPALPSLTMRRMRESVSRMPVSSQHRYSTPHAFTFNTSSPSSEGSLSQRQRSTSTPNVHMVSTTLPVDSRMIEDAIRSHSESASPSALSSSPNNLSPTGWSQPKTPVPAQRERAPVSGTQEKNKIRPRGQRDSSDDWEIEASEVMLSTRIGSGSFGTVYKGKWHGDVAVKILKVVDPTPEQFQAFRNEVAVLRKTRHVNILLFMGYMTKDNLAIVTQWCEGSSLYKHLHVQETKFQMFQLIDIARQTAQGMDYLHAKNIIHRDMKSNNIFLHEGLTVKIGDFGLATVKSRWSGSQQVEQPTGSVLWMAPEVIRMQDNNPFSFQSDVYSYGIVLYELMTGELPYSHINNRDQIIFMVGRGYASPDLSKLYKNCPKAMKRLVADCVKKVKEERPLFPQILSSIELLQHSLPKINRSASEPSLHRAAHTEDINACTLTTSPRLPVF

| IC50 (B-Raf) [µM] | IC50 (c-Raf-1) [µM] | IC50 (B-Raf V600E) [µM] | SMILES | turbidity threshold (L, M, H) 1.4 [1] | turbidity threshold (L, M, H) 4.5 [1] | turbidity threshold (L, M, H) 6.8 [1] | turbidity threshold (L, M, H) 7.4 [1] |
| --- | --- | --- | --- | --- | --- | --- | --- |
| < 0.1 | < 0.1 | < 0.1 | CCCS(=O)(=O)Nc1ccc(F)c(C(=O)c2c[nH]c3ncc(-c4cccc5nccn45)cc23)c1F [P-0018, Propane-1-sulfonic acid [2,4-difluoro-3-(5-imidazo[1,2-a]pyridin-5-yl-1H-pyrrolo[2,3-b]pyridine-3-carbonyl)-phenyl]-amide] | – | – | – | – |
| – | – | – | CCCS(=O)(=O)Nc1ccc(F)c(C(=O)c2c[nH]c3ncc(-c4ccc5cnn(C)c5c4)cc23)c1F [P-0027, Propane-1-sulfonic acid {2,4-difluoro-3-[5-(1-methyl-1H-indazol-6-yl)-1H-pyrrolo[2,3-b]pyridine-3-carbonyl]-phenyl}-amide] | L (low solubility if the threshold concentration is <31.3 μM) | L (low solubility if the threshold concentration is <31.3 μM) | L (low solubility if the threshold concentration is <31.3 μM) | L (low solubility if the threshold concentration is <31.3 μM) |
| – | – | – | CCCS(=O)(=O)Nc1ccc(F)c(C(=O)c2c[nH]c3ncc(-c4ccc5c(cnn5C)c4)cc23)c1F [P-0028, Propane-1-sulfonic acid {2,4-difluoro-3-[5-(1-methyl-1H-indazol-5-yl)-1H-pyrrolo[2,3-b]pyridine-3-carbonyl]-phenyl}-amide] | L (low solubility if the threshold concentration is <31.3 μM) | L (low solubility if the threshold concentration is <31.3 μM) | L (low solubility if the threshold concentration is <31.3 μM) | L (low solubility if the threshold concentration is <31.3 μM) |
| < 0.1 | – | < 10 | CC(C)(C)OC(=O)N1CCC(n2cc(-c3cnc4[nH]cc(C(=O)c5c(F)ccc(NS(=O)(=O)c6ccc(C(F)(F)F)cc6)c5F)c4c3)cn2)CC1 [P-1003, 4-(4-{3-[2,6-Difluoro-3-(4-trifluoromethyl-benzenesulfonylamino)-benzoyl]-1H-pyrrolo[2,3-b]pyridin-5-yl}-pyrazol-1-yl)-piperidine-1-carboxylic acid tert-butyl ester] | – | – | – | – |
| – | – | – | CCCS(=O)(=O)Nc1ccc(F)c(C(=O)c2c[nH]c3ncc(-c4cnc(NC5CC5)nc4)cc23)c1F [P-1504, Propane-1-sulfonic acid {3-[5-(2-cyclopropylamino-pyrimidin-5-yl)-1H-pyrrolo[2,3-b]pyridine-3-carbonyl]-2,4-difluoro-phenyl}-amide] | L (low solubility if the threshold concentration is <31.3 μM) | M (moderate solubility if the threshold concentration is 31.3 μM to 250 μM) | M (moderate solubility if the threshold concentration is 31.3 μM to 250 μM) | M (moderate solubility if the threshold concentration is 31.3 μM to 250 μM) |
| – | – | – | CCCS(=O)(=O)Nc1ccc(F)c(C(=O)c2c[nH]c3ncc(-c4cnc(NCCOC)nc4)cc23)c1F [P-1505, Propane-1-sulfonic acid (2,4-difluoro-3-{5-[2-(2-methoxy-ethylamino)-pyrimidin-5-yl]-1H-pyrrolo[2,3-b]pyridine-3-carbonyl}-phenyl)-amide] | L (low solubility if the threshold concentration is <31.3 μM) | L (low solubility if the threshold concentration is <31.3 μM) | L (low solubility if the threshold concentration is <31.3 μM) | M (moderate solubility if the threshold concentration is 31.3 μM to 250 μM) |
| – | – | – | COCCNc1ncc(-c2cnc3[nH]cc(C(=O)c4c(F)ccc(NS(=O)(=O)c5cc(F)ccc5F)c4F)c3c2)cn1 [P-1507, N-(2,4-Difluoro-3-{5-[2-(2-methoxy-ethylamino)-pyrimidin-5-yl]-1H-pyrrolo[2,3-b]pyridine-3-carbonyl}-phenyl)-2,5-difluoro-benzenesulfonamide] | L (low solubility if the threshold concentration is <31.3 μM) | L (low solubility if the threshold concentration is <31.3 μM) | L (low solubility if the threshold concentration is <31.3 μM) | L (low solubility if the threshold concentration is <31.3 μM) |
| – | – | – | CCCS(=O)(=O)Nc1ccc(F)c(C(=O)c2c[nH]c3ncc(-c4cnc(N5CCC5)nc4)cc23)c1F [P-1512, Propane-1-sulfonic acid {3-[5-(2-azetidin-1-yl-pyrimidin-5-yl)-1H-pyrrolo[2,3-b]pyridine-3-carbonyl]-2,4-difluoro-phenyl}-amide] | L (low solubility if the threshold concentration is <31.3 μM) | L (low solubility if the threshold concentration is <31.3 μM) | L (low solubility if the threshold concentration is <31.3 μM) | L (low solubility if the threshold concentration is <31.3 μM) |
| – | – | – | CCCS(=O)(=O)Nc1ccc(F)c(C(=O)c2c[nH]c3ncc(-c4cnc(NC)nc4)cc23)c1F [P-1514, Propane-1-sulfonic acid {2,4-difluoro-3-[5-(2-methylamino-pyrimidin-5-yl)-1H-pyrrolo[2,3-b]pyridine-3-carbonyl]-phenyl}-amide] | L (low solubility if the threshold concentration is <31.3 μM) | L (low solubility if the threshold concentration is <31.3 μM) | M (moderate solubility if the threshold concentration is 31.3 μM to 250 μM) | L (low solubility if the threshold concentration is <31.3 μM) |
| – | – | – | CCCS(=O)(=O)Nc1ccc(F)c(C(=O)c2c[nH]c3ncc(-c4cnc(NCCN(C)C)nc4)cc23)c1F [P-1515, Propane-1-sulfonic acid (3-{5-[2-(2-dimethylamino-ethylamino)-pyrimidin-5-yl]-1H-pyrrolo[2,3-b]pyridine-3-carbonyl}-2,4-difluoro-phenyl)-amide] | L (low solubility if the threshold concentration is <31.3 μM) | M (moderate solubility if the threshold concentration is 31.3 μM to 250 μM) | M (moderate solubility if the threshold concentration is 31.3 μM to 250 μM) | M (moderate solubility if the threshold concentration is 31.3 μM to 250 μM) |
| – | – | – | CCCS(=O)(=O)Nc1ccc(F)c(C(=O)c2c[nH]c3ncc(-c4cnc(NCCCOC)nc4)cc23)c1F [P-1516, Propane-1-sulfonic acid (2,4-difluoro-3-{5-[2-(3-methoxy-propylamino)-pyrimidin-5-yl]-1H-pyrrolo[2,3-b]pyridine-3-carbonyl}-phenyl)-amide] | L (low solubility if the threshold concentration is <31.3 μM) | L (low solubility if the threshold concentration is <31.3 μM) | L (low solubility if the threshold concentration is <31.3 μM) | L (low solubility if the threshold concentration is <31.3 μM) |
